Assay results: ChEMBL document CHEMBL1201862, “PubChem BioAssay data set” (2004)
The source made the active and inactive calls.

Experiments:
Albumin = Albumin (Bos taurus, UniProt P02769); test: Counterscreen for inhibitors of T-cell receptor (TCR)-CD3 interaction: Fluorescence-based biochemical high throughput dose response assay to identify inhibitors of T-cell receptor (TCR)-CD3 interaction using a TAMRA-labeled BSA probe.; type: functional
[1] = HEK293T cytotoxicity, dose response, cytotoxicity control for miR-122 modulator project, cell-based, inhibitor set, cherry-pick, set 2 (AID 720697); type: functional
[2] = molecular target: T1, Short transient receptor potential channel 4 (Mus musculus, UniProt Q9QUQ5); test: mouse TRPC4 channel activators, dose response, cell-based, HEK293 TRPC4/mu-opioid, Fluo-4 calcium (AID 434937); type: functional
T1 sequence (Q9QUQ5 whole entry): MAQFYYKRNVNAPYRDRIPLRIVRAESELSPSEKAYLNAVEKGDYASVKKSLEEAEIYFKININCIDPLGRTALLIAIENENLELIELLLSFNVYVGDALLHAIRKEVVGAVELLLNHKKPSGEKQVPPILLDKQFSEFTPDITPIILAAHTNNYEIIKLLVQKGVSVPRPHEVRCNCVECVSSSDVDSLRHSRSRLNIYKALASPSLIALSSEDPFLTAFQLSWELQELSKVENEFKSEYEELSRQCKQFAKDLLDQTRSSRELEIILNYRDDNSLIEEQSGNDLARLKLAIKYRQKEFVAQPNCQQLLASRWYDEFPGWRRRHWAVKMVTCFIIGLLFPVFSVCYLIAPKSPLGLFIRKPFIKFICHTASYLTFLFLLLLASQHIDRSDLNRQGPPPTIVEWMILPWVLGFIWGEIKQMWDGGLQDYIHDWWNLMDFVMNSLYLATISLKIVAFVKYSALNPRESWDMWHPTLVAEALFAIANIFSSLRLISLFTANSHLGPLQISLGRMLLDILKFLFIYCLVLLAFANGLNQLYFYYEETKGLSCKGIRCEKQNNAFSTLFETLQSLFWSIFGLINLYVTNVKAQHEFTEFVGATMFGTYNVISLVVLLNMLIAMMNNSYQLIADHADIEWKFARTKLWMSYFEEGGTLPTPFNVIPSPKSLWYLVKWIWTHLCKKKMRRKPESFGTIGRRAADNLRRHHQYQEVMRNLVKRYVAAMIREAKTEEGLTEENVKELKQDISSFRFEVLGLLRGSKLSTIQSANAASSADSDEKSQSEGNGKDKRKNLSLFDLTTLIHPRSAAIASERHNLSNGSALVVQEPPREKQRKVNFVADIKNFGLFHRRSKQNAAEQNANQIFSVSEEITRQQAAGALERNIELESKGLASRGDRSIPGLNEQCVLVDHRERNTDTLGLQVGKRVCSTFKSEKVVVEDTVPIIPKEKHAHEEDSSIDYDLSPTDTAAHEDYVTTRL

[3] = molecular target: T2, High affinity choline transporter 1 (Homo sapiens, UniProt Q9GZV3); test: CHT inhibitors, dose response, cell-based, 5-point CRC, membrane potential dye (AID 504840); type: functional
T2 sequence (Q9GZV3 whole entry): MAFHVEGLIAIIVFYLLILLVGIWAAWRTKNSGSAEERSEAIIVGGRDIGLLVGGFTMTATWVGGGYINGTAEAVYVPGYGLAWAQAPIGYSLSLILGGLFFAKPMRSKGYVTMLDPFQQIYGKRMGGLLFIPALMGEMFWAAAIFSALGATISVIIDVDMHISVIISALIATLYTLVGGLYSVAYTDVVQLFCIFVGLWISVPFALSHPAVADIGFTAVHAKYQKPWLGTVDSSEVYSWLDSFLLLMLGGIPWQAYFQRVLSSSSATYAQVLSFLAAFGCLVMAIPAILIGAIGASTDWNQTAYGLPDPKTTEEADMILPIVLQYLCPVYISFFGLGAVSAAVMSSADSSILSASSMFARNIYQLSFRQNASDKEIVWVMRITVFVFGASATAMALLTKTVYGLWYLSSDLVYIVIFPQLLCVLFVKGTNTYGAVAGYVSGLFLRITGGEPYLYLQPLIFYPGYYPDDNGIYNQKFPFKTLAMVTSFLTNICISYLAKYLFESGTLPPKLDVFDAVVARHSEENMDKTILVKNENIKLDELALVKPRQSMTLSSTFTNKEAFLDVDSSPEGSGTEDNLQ

[4] = molecular target: T2, High affinity choline transporter 1; test: CHT inhibitors, dose response, cell-based, 10-point CRC, membrane potential dye (AID 588401); type: functional;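 further: membrane potential dye fluorescence of choline-evoked depolarization via CHT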
[5] = C. albicans growth with fluconazole, confirmation, fluorescence, retest (AID 2467); type: functional, cell-based
[6] = NIH-3T3 fibroblast cytotoxicity, dose response, cytotoxicity control, cell-based, fluorescence, Alamar Blue, secondary assay (AID 2327); type: functional;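 further: NIH-3T3 mouse fibroblasts cultured with fluconazole at 8 µg/mL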
[7] = molecular target: T2, High affinity choline transporter 1; test: inhibitors of CHT choline uptake, dose response, cell-based, 3H-choline uptake, CHT LV-AA trafficking mutant, CRC (AID 602208); type: functional
[8] = molecular target: T3, Methionyl-tRNA synthetase, putative (Trypanosoma brucei brucei, UniProt Q38C91); type: functional, Trypanosoma brucei brucei strain 927/4 GUTat10.1
[9] = Counterscreen for inhibitors of Trypanosoma brucei methionyl tRNA synthetase (MetRS): Luminescence-based cell-based high throughput dose response assay to identify compounds that are cytotoxic to Jurkat human T lymphocyte cells.; type: functional
[10] = molecular target: T3, Methionyl-tRNA synthetase, putative; type: functional, Trypanosoma brucei brucei strain 927/4 GUTat10.1; remark: listed apart in the source
[11] = molecular target: T4, Low molecular weight phosphotyrosine protein phosphatase (Homo sapiens, UniProt P24666); type: functional; conditions: read-out: IC50_Mean
[12] = microbe, parasite or virus in culture; type: functional; conditions: Mycobacterium tuberculosis
[13] = molecular target: T4, Low molecular weight phosphotyrosine protein phosphatase; type: functional; conditions: read-out: IC50_Mean; remark: listed apart in the source
[14] = molecular target: Fructose-bisphosphate aldolase (Mycobacterium tuberculosis, UniProt P9WQA3); test: Fluorescence-based biochemical high throughput dose response assay for inhibitors of the fructose-bisphosphate aldolase (FBA) of M. tuberculosis.; type: functional
Protein Wnt-3a = Protein Wnt-3a (Mus musculus, UniProt P27467); test: Wnt3a-driven reporter signaling inhibition, dose response, selectivity assay for Gli-SUFU antagonist project, Wnt-LIGHT cells, luminescence (AID 651570); type: functional; conditions: read-out: IC50_Mean;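 further: Wnt-LIGHT reporter cells stimulated with conditioned medium from Wnt3a-producing cells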
Major prion protein = Major prion protein (Homo sapiens, UniProt P04156); type: functional, cell-based
[15] = molecular target: T5, Probable nicotinate-nucleotide adenylyltransferase (Staphylococcus aureus (strain N315), UniProt P65502); type: functional, Staphylococcus aureus subsp. aureus N315;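 on IC50 Mean: confirmatory dose-response retesting of NadD inhibitor hits first found in an ultra-high-throughput screen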
[16] = molecular target: T5, Probable nicotinate-nucleotide adenylyltransferase; type: functional, Staphylococcus aureus subsp. aureus N315; conditions: read-out: IC50_Mean

## O=C(NNC(=S)NC1CCCCC1)c1ccccc1O
Albumin
  IC50: > 94.1 µM (inactive)

## CN(C(=O)c1ccccc1Cl)C1CCCCC1
[1]
  AC50: 0.346 µM (active)

## CC(C)(C)C(=O)NC(=S)NNC(=O)C(c1ccccc1)c1ccccc1
[2]
  EC50: 1.06 µM (active)
[3]
  IC50: 6.48 µM (active)
[4]
  IC50: 4.01 µM (active)
[5]
  EC50: 1.2 µM (active)
[6]
  EC50: 5.35 µM (inconclusive)

## O=C(NC1CCCCC1)c1ccc(OC2CCN(Cc3ccccn3)CC2)cc1
[3]
  IC50: 1.65 µM (active)
[4]
  IC50: 0.891 µM (active)
[7]
  IC50: 8.43 µM (active)

## Cc1cc(Cn2nc(-c3ccccc3)cc2C(=O)NCc2cccc(Br)c2)on1
[8]
  IC50: 2.08 µM (active)
[9]
  IC50: 83.3 µM (inactive)
[10]
  IC50: 5.75 µM (active)

## CC(C)Oc1ccc(-c2nc(NCC3CCCO3)c3ccccc3n2)cc1 (configuration not stated)
[11]
  IC50: 24.2 µM (inactive)
[12]
  CC50: 29.2 µM (active)
[13]
  IC50: 18.1 µM (active)

## CNC(=O)c1cc2cc(OC)ccc2oc1=O
[14]
  IC50: 2.13 µM (active)

## Cc1nnsc1C(=O)Nc1ccc(S(=O)(=O)N2CCC(C)CC2)cc1
Protein Wnt-3a
  IC50: 27.1 µM (inactive)

## O=C(O)CCC(=O)NNC(=O)COc1ccc2ccccc2c1Br
Major prion protein
  IC50: 4.45 µM (active)
cells
  IC50: > 138 µM (inactive)

## Cc1ccc(C2(SCC(N)C(=O)O)c3ccccc3-c3ccccc32)cc1 (configuration not stated)
[15]
  IC50: 11 µM (active)
[16]
  IC50: 32.5 µM (active)
